# Test system: log phase NDM-1 Klebsiella Pneumoniae (NCTC13443)
# Assay: Time-kill method over 24 hours (CFU counts)
# Format: cell-based
# Settings: FIG. 1
# Protocol: As described hereinabove, time-kill methods are another accepted test for ascertaining the presence or absence of synergy, and involve comparing the dynamic effect of a drug combination with each drug alone when assessing the effect on bacterial log or stationary-growth over time.
# • 1. Bacterial strain used: NCTC13443 strain of Klebsiella Pneumoniae • 2. Growth of bacteria: Log phase growth of NCTC13443 was carried out according to known methods in the art, e.g. SOP R-005-00 Log Phase Growth of Bacteria. • 3. Compound preparation: dichlorophen and meropenem trihydrate were both obtained from commercial sources (e.g. Sigma-Aldrich® UK). • 4. The overnight culture was diluted with nutrient broth (Oxoid) to 10^7 CFU/ml and 280 μl and 290 μl of the culture was added to each combination well and drug respectively, to make the final concentration of 300 μl. • 5. Incubation of the compounds with the bacterial suspension was carried out for 24 hours. At 0, 2, 4, 7 and 24 hours, CFU counts were performed to measure the kill effects of the drug combination.
SMILES,effect against log phase NDM-1 Klebsiella Pneumoniae (time-kill) (used alone at 64 mg/L),effect against log phase NDM-1 Klebsiella Pneumoniae (time-kill) (used alone at 512 mg/L)
"Oc1ccc(Cl)cc1Cc1cc(Cl)ccc1O [dichlorophen, 4-chloro-2-[(5-chloro-2-hydroxyphenyl)methyl] phenol]",little or no effect,–
C[C@@H](O)[C@H]1C(=O)N2C(C(=O)O)=C(S[C@@H]3CN[C@H](C(=O)N(C)C)C3)[C@H](C)[C@H]12 [meropenem trihydrate],–,little or no effect

# Reference: US20200000742A1, “COMBINATION” (priority 2016, published 2020)
